Data taken from patent US20220265694A1, “COMPOSITIONS AND METHODS FOR TREATING AN INFECTION” (CMPD LICENSING, LLC, priority 2016, published 2022).

Tests used:
Pseudomonas fluorescens = assay: Expected efficacy of antibiotic agents; details: expected efficacy against Pseudomonas fluorescens; Gram: neg
[1] = system: Methicillin resistant staph aureus (MRSA); assay: Expected efficacy of antibiotic agents; details: expected efficacy against Methicillin resistant staph aureus (MRSA); Gram: pos
Streptococcus pyogenes = assay: Expected efficacy of antibiotic agents; details: expected efficacy against Streptococcus pyogenes; Gram: pos
Legionella pneumophila = details: expected efficacy against Legionella pneumophila; Gram: neg
Klebsiella oxytoca = assay: Expected efficacy of antibiotic agents; details: expected efficacy against Klebsiella oxytoca; Gram: neg
Enterobacter aerogenes = assay: Expected efficacy of antibiotic agents; details: expected efficacy against Enterobacter aerogenes; Gram: neg
Enterococcus faecium = assay: Expected efficacy of antibiotic agents; details: expected efficacy against Enterococcus faecium; Gram: pos
Clostridium perfringens = details: expected efficacy against Clostridium perfringens; Gram: anaer
Bacteroides fragilis = assay: Expected efficacy of antibiotic agents; details: expected efficacy against Bacteroides fragilis; Gram: anaer
[2] = system: Staphylococcus epidermidis; assay: Expected efficacy of antibiotic agents; details: expected efficacy against Staphylococcus epidermidis; Gram: pos
Brucella species = details: expected efficacy against Brucella species; Gram: neg
Proteus vulgaris = assay: Expected efficacy of antibiotic agents; details: expected efficacy against Proteus vulgaris; Gram: neg
Pseudomonas aeruginosa = assay: Expected efficacy of antibiotic agents; details: expected efficacy against Pseudomonas aeruginosa; Gram: neg
[3] = system: Staphylococcus aureus (MSSA); assay: Expected efficacy of antibiotic agents; details: expected efficacy against Staphylococcus aureus (MSSA); Gram: pos
Serratia marcescens = assay: Expected efficacy of antibiotic agents; details: expected efficacy against Serratia marcescens; Gram: neg
Enterobacter cloacae = assay: Expected efficacy of antibiotic agents; details: expected efficacy against Enterobacter cloacae; Gram: neg
Providencia stuartii = assay: Expected efficacy of antibiotic agents; details: expected efficacy against Providencia stuartii; Gram: neg
Chlamydia pneumoniae = assay: Expected efficacy of antibiotic agents; details: expected efficacy against Chlamydia pneumoniae; Gram: n/a
Streptococcus pneumoniae = assay: Expected efficacy of antibiotic agents; details: expected efficacy against Streptococcus pneumoniae; Gram: pos
Francisella tularensis = details: expected efficacy against Francisella tularensis; Gram: neg
Haemophilus influenzae = assay: Expected efficacy of antibiotic agents; details: expected efficacy against Haemophilus influenzae; Gram: neg
Rickettsiae = details: expected efficacy against Rickettsiae; Gram: neg
Streptococcus agalactiae = assay: Expected efficacy of antibiotic agents; details: expected efficacy against Streptococcus agalactiae; Gram: pos
Clostridium difficile = assay: Expected efficacy of antibiotic agents; details: expected efficacy against Clostridium difficile; Gram: anaer
Neisseria meningitidis = assay: Expected efficacy of antibiotic agents; details: expected efficacy against Neisseria meningitidis; Gram: neg
Corynebacterium jeikeium = assay: Expected efficacy of antibiotic agents; details: expected efficacy against Corynebacterium jeikeium; Gram: pos
Vibrio cholerae = assay: Expected efficacy of antibiotic agents; details: expected efficacy against Vibrio cholerae; Gram: neg
Bartonella bacilliformis = assay: Expected efficacy of antibiotic agents; details: expected efficacy against Bartonella bacilliformis; Gram: neg
Enterococcus faecalis = assay: Expected efficacy of antibiotic agents; details: expected efficacy against Enterococcus faecalis; Gram: pos
Citrobacter diversus = assay: Expected efficacy of antibiotic agents; details: expected efficacy against Citrobacter diversus; Gram: neg
Moraxella catarrhalis = assay: Expected efficacy of antibiotic agents; details: expected efficacy against Moraxella catarrhalis; Gram: neg
Enterobacter sakazakii = assay: Expected efficacy of antibiotic agents; details: expected efficacy against Enterobacter sakazakii; Gram: neg
Mycoplasma pneumoniae = assay: Expected efficacy of antibiotic agents; details: expected efficacy against Mycoplasma pneumoniae; Gram: n/a
Escherichia coli = assay: Expected efficacy of antibiotic agents; details: expected efficacy against Escherichia coli; Gram: neg
Morganella morganii = assay: Expected efficacy of antibiotic agents; details: expected efficacy against Morganella morganii; Gram: neg
Proteus mirabilis = assay: Expected efficacy of antibiotic agents; details: expected efficacy against Proteus mirabilis; Gram: neg
Campylobacter jejuni = assay: Expected efficacy of antibiotic agents; details: expected efficacy against Campylobacter jejuni; Gram: neg
Acinetobacter baumannii = assay: Expected efficacy of antibiotic agents; details: expected efficacy against Acinetobacter baumannii; Gram: neg
Klebsiella pneumoniae = assay: Expected efficacy of antibiotic agents; details: expected efficacy against Klebsiella pneumoniae; Gram: neg
[4] = system: Acinetobacter calcoaceticus; assay: Expected efficacy of antibiotic agents; details: expected efficacy against Acinetobacter calcoaceticus; Gram: neg
Citrobacter freundii = assay: Expected efficacy of antibiotic agents; details: expected efficacy against Citrobacter freundii; Gram: neg
Bordetella pertussis = assay: Expected efficacy of antibiotic agents; details: expected efficacy against Bordetella pertussis; Gram: neg
Acinetobacter lwoffii = assay: Expected efficacy of antibiotic agents; details: expected efficacy against Acinetobacter lwoffii; Gram: neg
Chlamydia psittaci = details: expected efficacy against Chlamydia psittaci; Gram: n/a
Chlamydia trachomatis = assay: Expected efficacy of antibiotic agents; details: expected efficacy against Chlamydia trachomatis; Gram: n/a
Providencia rettgeri = assay: Expected efficacy of antibiotic agents; details: expected efficacy against Providencia rettgeri; Gram: neg
[5] = system: Klebsiella (Calymmatobacterium); assay: Expected efficacy of antibiotic agents; details: expected efficacy against Klebsiella (Calymmatobacterium); Gram: neg
Haemophilus ducreyi = assay: Expected efficacy of antibiotic agents; details: expected efficacy against Haemophilus ducreyi; Gram: neg
Shigella dysenteriae = assay: Expected efficacy of antibiotic agents; details: expected efficacy against Shigella dysenteriae; Gram: neg
Shigella sonnei = assay: Expected efficacy of antibiotic agents; details: expected efficacy against Shigella sonnei; Gram: neg
Yersinia pestis = details: expected efficacy against Yersinia pestis; Gram: neg
[6] = system: Corynebacterium urealyticum; assay: Expected efficacy of antibiotic agents; details: expected efficacy against Corynebacterium urealyticum; Gram: pos
Shigella boydii = assay: Expected efficacy of antibiotic agents; details: expected efficacy against Shigella boydii; Gram: neg
Neisseria gonorrhoeae = assay: Expected efficacy of antibiotic agents; details: expected efficacy against Neisseria gonorrhoeae; Gram: neg
Salmonella typhi = assay: Expected efficacy of antibiotic agents; details: expected efficacy against Salmonella typhi; Gram: neg
Shigella flexneri = assay: Expected efficacy of antibiotic agents; details: expected efficacy against Shigella flexneri; Gram: neg
[7] = system: Haemophilus parainfluenzae; assay: Expected efficacy of antibiotic agents; details: expected efficacy against Haemophilus parainfluenzae; Gram: neg
Candida species = assay: Expected efficacy of antifungal agents; details: expected efficacy against Candida species

Measured: Efficacy

CC[C@H]1OC(=O)[C@H](C)[C@@H](O[C@H]2C[C@@](C)(OC)[C@@H](O)[C@H](C)O2)[C@H](C)[C@@H](O[C@@H]2O[C@H](C)C[C@H](N(C)C)[C@H]2O)[C@](C)(O)C[C@@H](C)CN(C)[C@H](C)[C@@H](O)[C@]1(C)O [Azithromycin]
yes: Streptococcus pyogenes | Legionella pneumophila | [2] | [3] | Chlamydia pneumoniae | Streptococcus pneumoniae | Haemophilus influenzae | Rickettsiae | Streptococcus agalactiae | Neisseria meningitidis | Vibrio cholerae | Bartonella bacilliformis | Moraxella catarrhalis | Mycoplasma pneumoniae | Campylobacter jejuni | Bordetella pertussis | Chlamydia psittaci | Chlamydia trachomatis
no: Pseudomonas fluorescens | [1] | Klebsiella oxytoca | Enterobacter aerogenes | Enterococcus faecium | Clostridium perfringens | Bacteroides fragilis | Brucella species | Proteus vulgaris | Pseudomonas aeruginosa | Serratia marcescens | Enterobacter cloacae | Providencia stuartii | Francisella tularensis | Clostridium difficile | Corynebacterium jeikeium | Enterococcus faecalis | Citrobacter diversus | Enterobacter sakazakii | Escherichia coli | Morganella morganii | Proteus mirabilis | Acinetobacter baumannii | Klebsiella pneumoniae | [4] | Citrobacter freundii | Acinetobacter lwoffii | Providencia rettgeri | [5]

C/C(=C\C(=O)OCCCCCCCCC(=O)O)C[C@@H]1OC[C@H](C[C@@H]2O[C@H]2[C@@H](C)[C@H](C)O)[C@@H](O)[C@H]1O [Bactroban]
yes: [1] | Streptococcus pyogenes | [3]
no: Pseudomonas fluorescens | Haemophilus ducreyi | Shigella dysenteriae | Legionella pneumophila | Klebsiella oxytoca | Enterobacter aerogenes | Shigella sonnei | Clostridium perfringens | Brucella species | Proteus vulgaris | Pseudomonas aeruginosa | Serratia marcescens | Enterobacter cloacae | Providencia stuartii | Francisella tularensis | Yersinia pestis | Haemophilus influenzae | Rickettsiae | Neisseria meningitidis | Corynebacterium jeikeium | Vibrio cholerae | Bartonella bacilliformis | [6] | Citrobacter diversus | Moraxella catarrhalis | Enterobacter sakazakii | Escherichia coli | Morganella morganii | Proteus mirabilis | Shigella boydii | Campylobacter jejuni | Acinetobacter baumannii | Klebsiella pneumoniae | Neisseria gonorrhoeae | [4] | Salmonella typhi | Citrobacter freundii | Bordetella pertussis | Acinetobacter lwoffii | Shigella flexneri | Providencia rettgeri | [5]

O=C(O)c1cn(C2CC2)c2cc(N3CCNCC3)c(F)cc2c1=O [Ciprofloxacin]
no: [1] | Enterococcus faecium | Bacteroides fragilis | Corynebacterium jeikeium
yes: Pseudomonas fluorescens | [7] | Shigella dysenteriae | Legionella pneumophila | Klebsiella oxytoca | Enterobacter aerogenes | Shigella sonnei | [2] | Proteus vulgaris | Pseudomonas aeruginosa | Serratia marcescens | Providencia stuartii | Chlamydia pneumoniae | Francisella tularensis | Yersinia pestis | Haemophilus influenzae | Rickettsiae | Neisseria meningitidis | Vibrio cholerae | Bartonella bacilliformis | Citrobacter diversus | Moraxella catarrhalis | Escherichia coli | Morganella morganii | Proteus mirabilis | Shigella boydii | Campylobacter jejuni | Klebsiella pneumoniae | Neisseria gonorrhoeae | Salmonella typhi | Citrobacter freundii | Shigella flexneri | Providencia rettgeri

C[C@@H]1[C@H](O)[C@@H](C)/C=C/C=C/CC/C=C/C=C/C=C/C=C/C(O[C@H]2O[C@H](C)[C@@H](O)[C@H](N)[C@@H]2O)CC2O[C@](O)(CC(O)C(O)CCC(O)CC(O)CC(O)CC(=O)O[C@H]1C)CC(O)C2C(=O)O (stereo partly shown) [Nystatin]
yes: Candida species
